Values quoted from earlier work, collected in patent US8021659B2, “Coenzyme Q10, lactoferrin and angiogenin compositions and uses thereof” (Naidu LP, priority 2006, dated 2011).
Where two headings read alike, the source gives them in different places.

Tests used:
[1] = human plasma

Molecule: COC1=C(OC)C(=O)C(C/C=C(\C)CC/C=C(\C)CC/C=C(\C)CC/C=C(\C)CC/C=C(\C)CC/C=C(\C)CC/C=C(\C)CC/C=C(\C)CC/C=C(\C)CCC=C(C)C)=C(C)C1=O [CoQ-10, 2,3-dimethoxy-5-methyl-6-decaprenyl-1,4-benzoquinone]
- elimination half-life (excretion primarily through the biliary tract): approximately 34 hours
- time to peak levels of CoQ-10 in the plasma (following oral administration): 5 to 10 h
- orally administered CoQ-10 excreted in the feces (oral administration): more than 60%
- serum concentrations (regular doses of 30-60 mg/day): 0.7 to 1.0 µg/mL
- serum concentrations (therapeutic doses of 100-200 mg/day): 2.0 to 3.0 µg/mL

Molecule: AGN: 14-kDa, basic heparin-binding protein and a member of the pancreatic ribonuclease superfamily
- half-life (turnover rate) [1]: < 5 min
